Measurements reported in patent US7078414B2, “Derivatives of 3-guanidinocarbonyl-1-heteroaryl-pyrrole, preparation process and intermediates of this process, their use as medicaments, and pharmaceutical compositions comprising them” (Sanofi-Aventis Deutschland GmbH, priority 2002, dated 2006).
pIC50: −log10 of the molar value. Where a name gives a salt, the structure may show the parent alone.

Assays:
[1] = molecular target: T1, NHE-1 subtype (Homo sapiens, UniProt P19634); experiment: NHE inhibition FLIPR test (intracellular pH recovery, BCECF) in transfected LAP-1 cell lines expressing NHE subtypes; assay type: cell-based; conditions: transfected LAP-1 cells expressing NHE-1 subtype, read-out: IC50 (NHE1)
T1 construct: expressed in transfected cells; host or cells: LAP-1 cells (parental line has no endogenous NHE activity), stably transfected and kept under G418 selection
Method: The NHE inhibitory activities (IC50 values) of the compounds according to the invention were determined by a FLIPR test.
The test is performed in the FLIPR (Fluorescent Imaging Plate Reader) equipped with clear-bottomed and black-walled 96-well microtitration plates.
The growth medium for the transfected cells (Iscove +10% foetal calf serum) also comprises G418 as selection antibiotic to ensure the presence of transfected sequences.
The actual test begins by eliminating the growth medium and adding 100 μl of loading buffer per well (5 μM of BCECF-AM [2′,7′-bis(2-carboxyethyl)-5-(6)-carboxyfluoresceine acetoxymethyl ester] in 20 mM of NH4Cl, 115 mM of choline chloride, 1 mM of CaCl2, 5 mM of KCl, 20 mM of HEPES and 5 mM of glucose; pH 7.4 (adjusted with KOH). The cells are then incubated for 20 minutes at 37° C. This incubation results in the loading of the fluorescent dye into the cells, the fluorescence intensity of which depends on the pHi, and on the NH4Cl, which results in a slight basification of the cells.
The precursor BCECF-AM, a non-fluorescent dye, is, as an ester, capable of crossing the membrane. The actual dye, which is incapable of crossing the membrane, is released inside the cell by esterases.
After this 20-minute incubation, the loading buffer, which comprises NH4Cl and free BCECF-AM, is removed by washing three times in the cell washing device (Tecan Columbus), each wash being performed with 400 μL of washing buffer (133.8 mM of choline chloride, 4.7 mM of KCl, 1.25 mM of MgCl2, 1.25 mM of CaCl2, 0.97 mM of K2HPO4, 0.23 mM of KH2PO4, 5 mM of HEPES and 5 mM of glucose; pH 7.4 (adjusted with KOH)). The residual volume remaining in the wells is 90 μL (possibly between 50 and 125 μL). This washing step removes the free BCECF-AM and results in an intracellular acidification (pHi of 6.3–6.4) due to the removal of the external ammonium ions.
As the equilibrium of the intracellular ammonium with the aqueous ammonia and the protons, by removal of the extracellular ammonium and by the subsequent immediate crossing of the aqueous ammonia across the cell membrane, is disrupted, the washing process results in intracellular protons remaining, which is the cause of the intracellular acidification. This acidification can result finally in the death of the cells if it lasts long enough. It is important here for the washing buffer to be free of sodium (<1 mM), otherwise the extracellular sodium ions would result in an immediate increase in the pHi on account of the activity of the cloned NHE isoforms. It is also important for all the buffers used (loading buffer, washing buffer and regeneration buffer) not to contain any HCO3-ions, otherwise the presence of bicarbonate would result in the activation of bicarbonate-dependent systems that disrupt the pHi regulation, which systems are contained in the LAP-1 parental cell line.
The microtiter plates containing acidified cells are then transferred (up to 20 minutes after the acidification) to the FLIPR. In the FLIPR, the intracellular fluorescent dye is activated with light of a wavelength of 488 nm, which is generated by an argon laser, and the measuring parameters (laser power, illumination time and diaphragm of the […] camera integrated into the FLIPR) are chosen such that the average value of the f fluorescent signal per well is between 30,000 and 35,000 relative fluorescence units.
The actual measurement in the FLIPR starts with a photograph being taken by the CCD camera every two seconds under software control. After 10 seconds, the increase in the intracellular pH is initiated by adding 90 μL of regeneration buffer (133.8 mM of NaCl, 4.7 mM of KCl, 1.25 mM of MgCl2, 1.25 mM of CaCl2, 0.97 mM of K2HPO4, 0.23 mM of KH2PO4, 10 mM of HEPES and 5 mM of glucose; pH 7.4 (adjusted with NaOH)) using a 96-well pipette device incorporated into the FLIPR.
Some wells, to which is added pure regeneration buffer, serve as positive controls (100% NHE activity). […]

T1 sequence (P19634 whole entry): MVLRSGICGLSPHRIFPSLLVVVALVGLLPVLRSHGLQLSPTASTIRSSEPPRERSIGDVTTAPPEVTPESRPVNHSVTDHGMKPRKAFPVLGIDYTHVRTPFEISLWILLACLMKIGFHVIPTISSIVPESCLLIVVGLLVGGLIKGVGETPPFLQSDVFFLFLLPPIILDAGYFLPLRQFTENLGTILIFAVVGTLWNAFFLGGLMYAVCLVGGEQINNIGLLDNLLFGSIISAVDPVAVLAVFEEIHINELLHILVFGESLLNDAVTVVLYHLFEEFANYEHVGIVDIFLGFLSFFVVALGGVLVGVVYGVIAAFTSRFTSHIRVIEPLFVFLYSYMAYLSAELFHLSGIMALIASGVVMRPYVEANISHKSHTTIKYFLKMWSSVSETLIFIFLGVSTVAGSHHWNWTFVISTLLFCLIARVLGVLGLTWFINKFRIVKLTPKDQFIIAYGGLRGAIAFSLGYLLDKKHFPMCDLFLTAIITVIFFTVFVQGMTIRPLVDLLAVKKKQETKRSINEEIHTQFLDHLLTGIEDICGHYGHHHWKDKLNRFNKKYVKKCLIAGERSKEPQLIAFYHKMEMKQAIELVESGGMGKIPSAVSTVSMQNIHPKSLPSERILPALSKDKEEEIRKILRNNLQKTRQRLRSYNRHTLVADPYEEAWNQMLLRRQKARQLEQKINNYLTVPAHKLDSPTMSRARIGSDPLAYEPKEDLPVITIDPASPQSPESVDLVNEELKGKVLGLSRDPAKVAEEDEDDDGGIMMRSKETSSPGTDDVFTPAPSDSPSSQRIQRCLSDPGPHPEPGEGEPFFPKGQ

| melting point [°C] | pIC50 [1] | SMILES |
| --- | --- | --- |
| 244 | – | NC(N)=NC(=O)c1ccn(-c2ccnc3ccccc23)c1 (as salt: hydrochloride) [Example 2, 3-Guanidinocarbonyl-1-(quinol-4-yl)-1H-pyrrole dihydrochloride] |
| 240 | – | Cc1c(C(=O)N=C(N)N)ccn1-c1ccnc2ccccc12 (as salt: hydrochloride) [Example 3, 3-Guanidinocarbonyl-2-methyl-1-(quinol-4-yl)-1H-pyrrole dihydrochloride] |
| 250 | – | Cc1c(C(=O)NC(=N)N)ccn1-c1ccc2ccccc2n1 (as salt: hydrochloride) [Example 4, 3-Guanidinocarbonyl-2-methyl-1-(quinol-2-yl)-1H-pyrrole hydrochloride] |
| 258 | 7.31 | Cl.NC(N)=NC(=O)c1ccn(-c2ccc3ccccc3n2)c1 [Example 1, 3-Guanidinocarbonyl-1-(quinol-2-yl)-1H-pyrrole hydrochloride] |
| – | 7.66 | NC(N)=NC(=O)c1ccn(-c2ccnc3ccccc23)c1 [Example 2, 3-Guanidinocarbonyl-1-(quinol-4-yl)-1H-pyrrole dihydrochloride] |
| – | 7.17 | Cc1c(C(=O)N=C(N)N)ccn1-c1ccnc2ccccc12 [Example 3, 3-Guanidinocarbonyl-2-methyl-1-(quinol-4-yl)-1H-pyrrole dihydrochloride] |
| – | 7.02 | Cc1c(C(=O)NC(=N)N)ccn1-c1ccc2ccccc2n1 [Example 4, 3-Guanidinocarbonyl-2-methyl-1-(quinol-2-yl)-1H-pyrrole hydrochloride] |
| – | 7.29 | NC(N)=NC(=O)c1ccn(-c2nccc3ccccc23)c1 [Example 5, 3-Guanidinocarbonyl-1-(isoquinol-1-yl)-1H-pyrrole hydrochloride] |
| 260 | 7.36 | N=C(N)NC(=O)c1ccn(-c2cccc3ncccc23)c1 [Example 6, 3-Guanidinocarbonyl-1-(quinol-5-yl)-1H-pyrrole] |
| 155 | 7.05 | N=C(N)NC(=O)c1ccn(-c2cccc3cccnc23)c1 [Example 7, 3-Guanidinocarbonyl-1-(quinol-8-yl)-1H-pyrrole] |
| – | 6.92 | N=C(N)NC(=O)c1ccn(-c2cncc3ccccc23)c1 [Example 8, 3-Guanidinocarbonyl-1-(isoquinol-4-yl)-1H-pyrrole] |
| 215 | 9.60 | Cc1cn(-c2ccnc3ccccc23)cc1C(=O)NC(=N)N [Example 9, 3-Guanidinocarbonyl-4-methyl-1-(quinol-4-yl)-1H-pyrrole] |
| 247 | 9.80 | Cc1cn(-c2nccc3ccccc23)cc1C(=O)NC(=N)N.Cl [Example 10, 3-Guanidinocarbonyl-1-(isoquinol-1-yl)4-methyl-1H-pyrrole hydrochloride] |
| – | 7.72 | Cc1c(C(=O)NC(=N)N)cn(-c2ccnc3ccccc23)c1C [Example 11, 3-Guanidinocarbonyl-4,5-dimethyl-1-(quinol-4-yl)-1H-pyrrole dihydrochloride] |
| 185 | 9.30 | Cl.N=C(N)NC(=O)c1cn(-c2ccnc3ccccc23)cc1C1CC1 [Example 12, 4-Cyclopropyl-3-guanidinocarbonyl-1-(quinolin-4-yl)-1H-pyrrole dihydrochloride] |
| 240 | 10.00 | Cc1cn(-c2cccc3ncccc23)cc1C(=O)NC(=N)N.Cl [Example 13, 3-Guanidinocarbonyl-4-methyl-1-(quinolin-5-yl)-1H-pyrrole hydrochloride] |

| melting point [°C] | pIC50 [1] | SMILES |
| --- | --- | --- |
| – | 8.64 | N=C(N)NC(=O)c1cn(-c2ccnc3ccccc23)cc1C(F)(F)F [Example 14, 4-Trifluoromethyl-3-guanidinocarbonyl-1-(quinolin-4-yl)-1H-pyrrole] |
| – | 8.59 | N=C(N)NC(=O)c1cn(-c2nccc3ccccc23)cc1C(F)(F)F [Example 15, 4-Trifluoromethyl-3-guanidinocarbonyl-1-(isoquinolin-1-yl)-1H-pyrrole hydrochloride] |
| – | 8.51 | Cc1cc(-n2cc(C)c(C(=O)N=C(N)N)c2)c2ccccc2n1 [Example 16, N-[4-Methyl-1-(2-methyl-quinolin-4-yl)-1H-pyrrole-3-carbonyl]-guanidine trifluoroacetate] |
| – | 7.97 | Cc1cc(-n2ccc(C(=O)N=C(N)N)c2)c2ccccc2n1 [Example 17, N-[1-(2-Methyl-quinolin-4-yl)-1H-pyrrole-3-carbonyl]-guanidinetrifluoroacetate] |
| – | 8.80 | Cc1cn(-c2ccnc3cc(Cl)ccc23)cc1C(=O)N=C(N)N [Example 18, N-[1-(7-Chloro-quinolin-4-yl)-4-methyl-1H-pyrrole-3-carbonyl]-guanidine trifluoroacetate] |
| – | 7.37 | NC(N)=NC(=O)c1ccn(-c2ccnc3cc(Cl)ccc23)c1 [Example 19, N-[1-(7-Chloro-quinolin-4-yl)-1H-pyrrole-3-carbonyl]-guanidinetrifluoracetate] |
| – | 9.10 | Cc1cn(-c2ccnc3ccc(F)cc23)cc1C(=O)N=C(N)N [Example 20, N-[1-(6-Fluoro-quinolin-4-yl)-4-methyl-1H-pyrrole-3-carbonyl]-guanidine trifluoroacetate] |
| – | 7.54 | NC(N)=NC(=O)c1ccn(-c2ccnc3ccc(F)cc23)c1 [Example 21, N-[1-(6-Fluoro-quinolin-4-yl)-1H-pyrrole-3-carbonyl]-guanidinetrifluoroacetate] |
| – | 9.70 | Cc1cn(-c2ccnc3c(F)cccc23)cc1C(=O)N=C(N)N [Example 22, N-[1-(8-Fluoro-quinolin-4-yl)-4-methyl-1H-pyrrole-3-carbonyl]-guanidine trifluoroacetate] |
| – | 7.01 | NC(N)=NC(=O)c1ccn(-c2ccnc3c(F)cccc23)c1 [Example 23, N-[1-(8-Fluoro-quinolin-4-yl)-1H-pyrrole-3-carbonyl]-guanidinetrifluoroacetate] |
| 208.5 | – | Cc1cn(-c2ncccn2)cc1C(=O)NC(=N)N [Example 25, N-(4-Methyl-1-pyrimidin-2-yl-1H-pyrrole-3-carbonyl)-guanidine] |
| – | 8.44 | Cc1cn(-c2ccccn2)cc1C(=O)NC(=N)N [Example 26, N-(4-Methyl-1-pyridin-2-yl-1H-pyrrole-3-carbonyl)-guanidine] |
| – | 9.22 | Cc1cn(-c2cccnc2)cc1C(=O)NC(=N)N [Example 27, N-(4-Methyl-1-pyridin-3-yl-1H-pyrrole-3-carbonyl)-guanidine] |
| – | 6.72 | Cc1cn(-c2cncnc2)cc1C(=O)NC(=N)N [Example 28, N-(4-Methyl-1-pyrimidin-5-yl-1H-pyrrole-3-carbonyl)-guanidine] |
| 264.4 | 8.37 | CC(=O)O.Cc1cn(-c2ccc3ccccc3n2)cc1C(=O)NC(=N)N [Example 29, N-(4-Methyl-1-quinolin-2-yl-1H-pyrrole-3-carbonyl)-guanidine hydrogenacetate] |
| 279.5 | 7.77 | CC(=O)O.Cc1cn(-c2cnc3ccccc3c2)cc1C(=O)NC(=N)N [Example 30, N-(4-Methyl-1-quinolin-3-yl-1H-pyrrole-3-carbonyl)-guanidine hydrogenacetate] |

| SMILES | melting point [°C] | pIC50 [1] |
| --- | --- | --- |
| NC(N)=NC(=O)c1ccn(-c2cnnc3ccccc23)c1 [Example 24, N-(1-Cinnolin-4-yl-1H-pyrrole-3-carbonyl)-guanidine trifluoroacetate] | – | 6.65 |
